{"source": "patent US20130267494A1", "about": "“1,4-OXAZEPANE DERIVATIVES” (priority 2010, published 2013)", "tested_on": "SD female rats", "experiment": "Measurement of urethral resistance increasing effect (leak point pressure, intravenous administration)", "format": "in vivo, rat", "settings": "for urethral resistance increasing effect (cmH2O): SD female rats", "protocol": "The urethral resistance increasing effect in rat was measured by a modified method of Matsumoto et al. (WO2009/063992) as follows. That is, SD female rats (CLEA Japan, Inc.) were anesthetized with isoflurane (1.0%; Abbott), and the spinal cord was transected at Th8-9 to avoid the voiding reflex. After laparotomy, an intravesical pressure measurement catheter and a saline infusion catheter (PE-100; Clay Adams) were inserted into the bladder. Thereafter, the abdomen of the rat was closed with aronalpha A “Sankyo” (Daiichi Sankyo). The rat with an inserted catheter was placed in a Bollman cage (KN-326 Bollman cage TYPE III; Natsume). The intravesical pressure measurement catheter was connected to a computer via a pressure transducer (REF685640; Nihon Koden), an amplifier (RPM-6008M; Nihon Koden), and a multi-channel data analyzer (MP150; Biopack), and changes in the intravesical pressure were recorded on a hard disc at a frequency of 100 samples/sec. The saline infusion catheter was connected to a 50 mL syringe (Terumo) filled with saline colored with Evans Blue (Wako). The saline was infused into the bladder from the 50 mL syringe filled with saline at a rate of 0.1 mL/sec by using an infusion pump (Kds100; KD Scientific). When the saline leaked from the urethral orifice, infusion was discontinued, and the saline in the bladder was released. The maximum pressure observed during infusion of saline into the bladder and leakage thereof was taken as an LPP (Leak point pressure) value. The measurement was repeated until the LPP value was stabilized, and an average of continuous three stable LPP values was taken as the result. […] The LPP value (Pre value) was measured, a drug was intravenously administered, and the measurement of LPP value (Post value) was again started 10 min after administration. […]\nThe compound of Example 6 (0.3 mg/kg), the compound of Example 6 (1.0 mg/kg) and the vehicle were administered to the rats, and the urethral resistance increasing effect was measured by the aforementioned method.", "note": "Counter-ions that a name gives are not always drawn.", "data": [{"smiles": "CC(=O)NC[C@H]1CNCCO[C@@H]1c1ccc(Cl)c(Cl)c1", "note": "(racemic) [Example 6, N-{[(6RS,7SR)-7-(3,4-dichlorophenyl)-1,4-oxazepan-6-yl]methyl}acetamide monohydrochloride]", "values": [{"measurement": "urethral resistance increasing effect (cmH2O)", "setting": "dose 0.3 mg/kg", "result": "12.8 ± 1.1", "unit": "cmH2O"}, {"measurement": "urethral resistance increasing effect (cmH2O)", "setting": "dose 1.0 mg/kg", "result": "19.1 ± 1.8", "unit": "cmH2O"}, {"measurement": "urethral resistance increasing effect (LPP Post value minus Pre value) compared to vehicle", "setting": "spinal cord-transected SD female rats, intravenous 0.3 and 1.0 mg/kg, LPP measured from 10 min after administration, Williams' test", "result": "dose-dependent and significant urethral resistance increasing effect"}]}]}
